Structures can show the parent of a compound that is named as a salt. Marks after values point to notes of the source that are not given here. Each block holds one compound with its values, some of them ahead of it.
How the values were obtained:
[1] = system: Itgam, Oasl2, Akap13, Arfgef1 expression in MigA9 cells; assay: qRT-PCR of differentiation-associated genes; assay type: cell-based, murine; details: MigA9, 5 or 10μM, 48 hours
MigA9 cells [2] = details: 2.5μM, 10 days; for MigA9 Number of colonies, Total: 1000 cells/well
K562 cells = assay: Colony-forming assay K562; assay type: cell-based, human; details: 2.5μM, 10 days, 1000 cells/well, mean +/− s.e.m
[3] = system: HOXA9-mediated transactivation; assay: HOXA9-driven luciferase assay; assay type: cell-based, human; details: K562 transfected with pCMV-AD-HOXA9 and wild-type HBS reporter, 20μM, 48H
[4] = system: HOXA9 binding site 5′-ATTTA; assay: DNase I footprinting
HMG-box protein = HMG-box protein DNA binding; details: specificity control
HOXA9/HBS complex = assay type: binding, human; details: from EMSA quantification
MigA9 and/or HT-29 cells = assay: Cellular distribution by fluorescence microscopy; assay type: cell-based; details: intrinsic fluorescence; MigA9 20 μM 2h and/or HT-29 5μM 16H
MigA9 cells [5] = assay: Cell cycle and sub-G1 analysis; assay type: cell-based, murine
[6] = system: HOXA9/DNA binding (HBS, HOXA9-binding site); design: species or system human; details: ELISA-derived assay and EMSA, Figure 1; SAR discussion
HBS DNA sequence = assay: Circular dichroism on HBS oligonucleotide; assay type: binding; details: 300-400 nm, increasing drug/DNA ratio

SMILES: N=C(N)c1ccc(-c2ccc(-c3nc4ccc(C(=N)N)cc4[nH]3)s2)cc1 [DB818]
over-expression of Itgam, Oasl2, Akap13 and Arfgef1 [1]: over-expression
MigA9 Number of colonies, Total (MigA9 cells [2]): 101
MigA9 colonies, BFU-E (%) (MigA9 cells [2]; share of total colonies): 3 (3%)
MigA9 colonies, Total (%) (MigA9 cells [2]; share of total colonies): 100%
K562 Number of colonies, Total (K562 cells): 448 +/− 17
inhibition of HOXA9-mediated transactivation (luciferase) [3]: able to inhibit
recognition of 5′-ATTTA site in DNase I footprinting [4]: protected site was clearly evidenced
inhibition of DNA binding of the HMG-box protein (HMG-box protein): failed to inhibit

sub-group for HOXA9/DNA binding inhibition (HOXA9/HBS complex): Medium
recognition of 5′-ATTTA site in DNase I footprinting [4]: much weaker binding activity
SMILES: N=C(N)c1ccc(-c2ccc(-c3ccc4ccc(C(=N)N)cc4c3)cc2)cc1 [DB1177]

SMILES: N=C(N)c1ccc(-c2cccc(-c3nc4ccc(C(=N)N)cc4[nH]3)c2)cc1 [DB911]
entry into cells and localization in the nucleus (MigA9 and/or HT-29 cells): could not be detected

recognition of 5′-ATTTA site in DNase I footprinting [4]: protected site was clearly evidenced
SMILES: N=C(N)c1ccc(-c2ccc(-c3cc4ccc(C(=N)N)cc4[nH]3)s2)nc1 [DB2529, 2-(5-(5-Carbamimidoylpyridin-2-yl)thiophen-2-yl)-1H-indole-6-carboximidamide trihydrochloride]

recognition of 5′-ATTTA site in DNase I footprinting [4]: protected site was clearly evidenced
SMILES: N=C(N)c1ccc(-c2ccc(-c3cc4ccc(C(=N)N)cc4[nH]3)s2)cc1 [DB1879, 2-(5-(4-Carbamimidoylphenyl)thiophen-2-yl)-1H-indole-6-carboximidamide diydrochloride]

inhibition of HOXA9-mediated transactivation (luciferase) [3]: able to inhibit
recognition of 5′-ATTTA site in DNase I footprinting [4]: protected site was clearly evidenced
inhibition of DNA binding of the HMG-box protein (HMG-box protein): failed to inhibit
SMILES: N=C(N)c1cccc(-c2ccc(-c3nc4cc(C(=N)N)ccc4[nH]3)cc2)c1 [DB1055]
MigA9 Number of colonies, BFU-E (MigA9 cells [2]): 2
MigA9 Number of colonies, CFU-G (MigA9 cells [2]): 58
MigA9 Number of colonies, CFU-M (MigA9 cells [2]): 55
MigA9 Number of colonies, Total (MigA9 cells [2]): 115
MigA9 colonies, CFU-GM (%) (MigA9 cells [2]; share of total colonies): 0 (0%)
MigA9 colonies, Total (%) (MigA9 cells [2]; share of total colonies): 100%
K562 Number of colonies, Total (K562 cells): 467 +/− 12
% SubG1 48H (MigA9 cells [5]; MigA9, 15 μM): 1.27 +/− 0.20%

HOXA9/DNA binding inhibition (in words) [6]: inactive
SMILES: N=C(N)c1ccc(-c2ccc(-c3ccc(C(=N)N)cc3)s2)cc1 [DB351]

SMILES: N=C(N)c1ccc(-c2ccc(-c3nc4cc(C(=N)N)ccc4o3)o2)cc1 [DB828]
entry into cells and localization in the nucleus (MigA9 and/or HT-29 cells): localized to the nucleus
induced CD signal (HBS DNA sequence): only weak CD changes
over-expression of Itgam, Oasl2, Akap13 and Arfgef1 [1]: failed to achieve the similar results
MigA9 Number of colonies, BFU-E (MigA9 cells [2]): 2
MigA9 Number of colonies, CFU-GM (MigA9 cells [2]): 90
MigA9 Number of colonies, CFU-M (MigA9 cells [2]): 16
MigA9 Number of colonies, Total (MigA9 cells [2]): 170
MigA9 colonies, Total (%) (MigA9 cells [2]; share of total colonies): 100%
inhibition of HOXA9-mediated transactivation (luciferase) [3]: failed
recognition of 5′-ATTTA site in DNase I footprinting [4]: failed to recognize

recognition of 5′-ATTTA site in DNase I footprinting [4]: failed to recognize
SMILES: N=C(Nc1ccc(-c2ccc(-c3ccc(NC(=N)c4ccccn4)cc3)[nH]2)cc1)c1ccccn1 [DB883]

recognition of 5′-ATTTA site in DNase I footprinting [4]: much weaker binding activity
SMILES: N=C(N)c1ccc(-c2ccc(-c3cc4ccc(C(=N)N)cc4[nH]3)o2)cc1 [DB1878]
% SubG1 48H (MigA9 cells [5]; MigA9, 10 μM): 15.94 +/− 1.80 ^$ %
% SubG1 48H (MigA9 cells [5]; MigA9, 15 μM): 27.88 +/− 16.14 * %

— paper PMC6561105 (Journal of medicinal chemistry, 2019)
